From article PMC4549706, “Rational Design of Highly Potent and Slow-Binding Cytochrome bc1 Inhibitor as Fungicide by Computational Substitution Optimization” (Scientific Reports, 2015)
Where two headings read alike, the source gives them in different places.

How the values were obtained:
bc1 complex = target: T1, bc1 complex (Sus scrofa, UniProt P24964); assay: bc1 complex activity, DBH2-cytochrome c system (Assay 3); format: biochemical, porcine
T1 construct: T h e S C R f r o m p o r c i n e h e a r t; from tissue; host or cells: porcine heart
Description: Figure 3 Inhibitory kinetics of bc1 complex. (A) Chemical structures of AZ (azoxystrobin) and its analogues, compound 1 and compound 18. These compounds have a common pharmacophore structure: methoxyacrylate (MOA). […] Each reaction mixture contains phosphate buffered saline (PBS; 100 mM, pH 6.5), ethylenediaminetetraacetic acid (EDTA; 2 mM), lauryl maltoside (750 μM), oxidised cytochrome c (100 μM), SCR (0.05 nM), DBH2 (20–120 μM) and a specified amount of AZ (1, 0 nM; 2, 500 nM; 3, 1000 nM; 4, 2000 nM; 5, 3000 nM; and 6, 5000 nM). (C) Compound 1 is non-competitive with respect to cytochrome c. The reaction mixture contains 100 mM, pH 7.4), EDTA (0.3 mM), succinate (20 mM), SCR (0.1 nM), cytochrome c (1.13–15.6 μM), and a series of concentrations of compound 1 (1, 0 nM; 2, 10 nM; 3, 20 nM; 4, 40 nM; and 5, 60 nM). (D) Compound 1 is competitive with respect to DBH2. Each reaction mixture contains 100 mM, pH 6.5), EDTA (2 mM), lauryl maltoside (750 μM), oxidised cytochrome c (100 μM), SCR (0.05 nM), DBH2 (20–120 μM) and a specified amount of compound 1 (1, 0 nM; 2, 50 nM; 3, 100 nM; 4, 200 nM; 5, 300 nM; and 6, 500 nM).
(§1) Figure 4 Slow-binding inhibition mechanism. (A,B) Effect of various concentrations of cytochrome c and compound 18 on the inhibition of SCR activity. Each reaction mixture contains 100 mM, pH 7.4), EDTA (0.3 mM), succinate (20 mM), SCR (0.1 nM), and indicated amounts of cytochrome c and compound 18. The assays were performed in the presence of (A) 18 (35 nM) and a specified amount of cytochrome c (1, 4 μM; 2, 8 μM; 3, 20 μM; and 4, 48 μM) or (B) cytochrome c (60 μM) and various concentrations of compound 18 (1, 0 nM; 2, 15 nM; 3, 20 nM; 4, 30 nM; 5, 40 nM; and 6, 50 nM). Experimental data are shown as coloured dots and theoretical values are represented as black solid lines. Insets: plots of Kobs against concentration of (A) cytochrome c and (B) compound 18. […] Each reaction mixture contains 100 mM, pH 6.5), EDTA (2 mM), lauryl maltoside (750 μM), oxidised cytochrome c (100 μM), SCR (0.05 nM), and indicated amounts of DBH2 and compound 18. Two representative sets of inhibitory assays were performed in the presence of (C) DBH2 (20 μM) and a specified amount of compound 18 (1, 20 nM; 2, 40 nM; 3, 60 nM; 4, 80 nM), or (D) DBH2 (120 μM) and a specified amount of compound 18 (1, 40 nM; 2, 80 nM; 3, 120 nM; 4, 180 nM). Insets: plots of Kobs against concentration of compound 18. (E) Plot of the apparent rate constant A against concentration of DBH2. Inset: Plot of 1/A against concentration of DBH2. (F) Plot of the apparent rate constant B against concentration of DBH2.
(§2) The porcine succinate-cytochrome c reductase (SCR, the mixture of complex II and bc1) was prepared essentially according to the previously reported method. The enzymatic activities of SCR, complex II, and bc1 complex were analyzed in respective reaction mixtures as reported previously. Kinetic analyses for the inhibition mechanism were performed as previously described. […]
(§3) inhibitory kinetics study of bc1 inhibitors 8. […]
(§4) synthesized compounds against bc1 complex were examined by SCR. As previously described 9, the combined activity of SCR can be determined by using succinate and cytochrome c as substrates (Assay 1). We also measured the activity of complex II by using succinate and 2,6-dichloroindophenol (DCIP) as substrates (Assay 2), or the activity of bc1 complex by using decylubiquinol (DBH2) and cytochrome c as substrates (Assay 3). […]
redA 10, was used to represent the enzyme concentration. The three redox reactions used in this study were summarized as follows. […]

[1] = target: T2, porcine succinate-cytochrome c reductase (SCR, the mixture of complex II and bc1) (Sus scrofa, UniProt P24964); assay: SCR activity, succinate-cytochrome c system (Assay 1); format: biochemical; details: for ∆∆Gexp: Table S1, experimental binding free energy change vs compound 1; for ΔΔGexp: experimental binding free energy change relative to compound 1
T2 construct: T h e S C R f r o m p o r c i n e h e a r t; from tissue; host or cells: porcine heart
Description: as §1, §2, §3, §4
redA 10, was used to represent the enzyme concentration. The three redox reactions used in this study were summarized as follows.
Assay 1: succinate + cytochrome c3+ S C R fumarate + cytochrome c2+
Assay 2: succinate + DCIP complex II fumarate + DCIPH 2
Assay 3: DBH 2 + cytochrome c3+ bc1 complex DB + cytochrome c2+
All assays were performed at 23 °C. The enzymatic activity of SCR (Assay 1) was carried out in 1.8 mL of reaction mixture containing 100 mM PBS (pH 7.4), 0.3 mM EDTA, and indicated concentrations of succinate and oxidized cytochrome c (Sigma-Aldrich). The activity of succinate-ubiquinone reductase (complex II, Assay 2) was determined in essentially the same reaction mixture, except for the replacement of cytochrome c with DCIP (Alfa Aesar). […] DBH 2 was prepared through reduction of decylubiquinone by dithionite (Sigma-Aldrich) as previously described 11,12. The nonionic detergent LM was used to decrease the interfering non-enzymatic activity though it slightly […]

[2] = tested on: Pseudoperonospora cubensis (Berk. et Curt.); assay: In vivo fungus growth inhibitory rate at 200 mg/L, downy mildew
Description: (§5) [a] Compounds are named as “series number-site number plus substitution group number” a: -F, b: -Cl, c:
(§6) -Br, d: -NO2, e: -CH3, f: -CF3, g: -OCH3, h: -OH, i: -NH2, j: -COOH.
(§7) [b] Substitution number and group.
(§8) [c] CH is “series 1” and N is “series 2”. […]
(§9) Table S2 Fungus growth inhibitory rate of target compounds (200 mg/L).
(§10) Comp. No. R X Sphaerotheca fuliginea Pseudoperonospora cubensis

[3] = tested on: Sphaerotheca fuliginea (Schlecht.) Poll.; assay: In vivo fungus growth inhibitory rate at 200 mg/L, powdery mildew
From the text: Based on the above in vitro study, compounds with nanomolar and subnanomolar Ki values were selected from the total 21 newly synthezised compounds for further studies. Pesticide likeness, defined as a complex balance of various physicochemical properties and structure features, can evaluate whether a molecule is similar to the known pesticides. After the filtration of pesticide likeness, seven compounds were kept to adhere to our previously defined rules for pesticide-likeness including molecular weight (MW) ≤ 435 Da, ClogP ≤ 6, number of H-bond acceptors (HBA) ≤ 6, number of H-bond donors (HBD) ≤ 2, number of rotatable bonds (ROB) ≤ 9, and number of aromatic bonds (ARB) ≤ 17 (Table 1)[24]. […] Therefore, compound 18 was recognized as lead compound for subsequent studies.
as §5, §6, §7, §8, §9, §10

[4] = Table S1, inhibition constant with bc1 complex, read-out: Ki

T2 sequence (P24964 whole entry, one chain of several): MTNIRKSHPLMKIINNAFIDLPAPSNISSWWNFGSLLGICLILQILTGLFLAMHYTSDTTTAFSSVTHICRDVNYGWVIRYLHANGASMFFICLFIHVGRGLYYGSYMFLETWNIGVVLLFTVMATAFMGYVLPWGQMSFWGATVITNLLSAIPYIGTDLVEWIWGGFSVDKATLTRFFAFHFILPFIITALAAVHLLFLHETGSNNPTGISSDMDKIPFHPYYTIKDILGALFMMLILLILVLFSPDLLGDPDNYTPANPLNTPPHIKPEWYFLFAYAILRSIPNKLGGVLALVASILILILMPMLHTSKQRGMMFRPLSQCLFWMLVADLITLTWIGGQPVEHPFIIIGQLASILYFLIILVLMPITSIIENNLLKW
T1 sequence (P24964 whole entry, one chain of several): as above

Row | Structure (SMILES) | Ki [1] [nM] | ∆∆Gexp [1] [kcal/mol] | ΔΔGexp [1] [kcal/mol] | Ki [1, 4] [nM] | other results
1 | CO/C=C(/C(=O)OC)c1ccccc1CSc1nc2ccccc2s1 [Compound 1, E-Methyl 2-(2-((benzo-thiazol-2-ylthio)methyl)phenyl)-3-methoxyacrylate] | 31.1 ± 0.9 | 0.00 | 0.00 |  | Ki (bc1 complex): 96.5 ± 5.6 nM; inhibition type with respect to DBH2 (bc1 complex; Assay 3, varied DBH2): competitive; Ki in DBH2-cytochrome c system relative to Ki in succinate-cytochrome c system (bc1 complex; Assay 3 vs Assay 1): approximately 3 fold; inhibition type with respect to cytochrome c ([1]; Assay 1, varied cytochrome c): non-competitive; melting point: 84 to 86 °C
2 | CO/C=C(/C(=O)OC)c1ccccc1CSc1nc2c(F)cccc2s1 [Compound 2] |  | 0.09 |  | 35.9 ± 1.24 | 
3 | CO/C=C(/C(=O)OC)c1ccccc1CSc1nc2c(Cl)cccc2s1 [Compound 3] |  | 0.47 |  | 68.5 ± 1.21 | 
4 | CO/C=C(/C(=O)OC)c1ccccc1CSc1nc2cc(F)ccc2s1 [Compound 12] | 2.15 ± 0.23 | -1.58 | -1.58 |  | Fungus growth inhibitory rate, Pseudoperonospora cubensis [2]: 90%; Fungus growth inhibitory rate, Sphaerotheca fuliginea [3]: 99%
5 | CO/C=C(/C(=O)OC)c1ccccc1CSc1nc2cc(Cl)ccc2s1 [Compound 13] | 0.69 ± 0.06 | -2.26 | -2.26 |  | 
6 | CO/C=C(/C(=O)OC)c1ccccc1CSc1nc2cc([N+](=O)[O-])ccc2s1 [Compound 15] | 0.39 ± 0.02 | -2.60 | -2.60 |  | 
7 | CO/C=C(/C(=O)OC)c1ccccc1CSc1nc2ccc(F)cc2s1 [Compound 22] | 3.97 ± 0.27 | -1.22 | -1.22 |  | 
8 | CO/C=C(/C(=O)OC)c1ccccc1CSc1nc2ccc(Cl)cc2s1 [Compound 23] | 2.75 ± 0.01 | -1.44 | -1.44 |  | 
9 | CO/C=C(/C(=O)OC)c1ccccc1CSc1nc2ccc(Br)cc2s1 [Compound 24] | 1.15 ± 0.4 | -1.96 | -1.96 |  | 
10 | CO/C=C(/C(=O)OC)c1ccccc1CSc1nc2ccc(C)cc2s1 [Compound 26] | 1.15 ± 0.05 | -1.96 | -1.96 |  | Fungus growth inhibitory rate, Pseudoperonospora cubensis [2]: 97%; Fungus growth inhibitory rate, Sphaerotheca fuliginea [3]: 81%
11 | CO/C=C(/C(=O)OC)c1ccccc1CSc1nc2ccc(C(F)(F)F)cc2s1 [Compound 27] | 0.81 ± 0.03 | -2.16 | -2.16 |  | 
12 | CO/N=C(/C(=O)OC)c1ccccc1CSc1nc2c(F)cccc2s1 [Compound 42] |  | 0.97 |  | 160 ± 1.1 | 
13 | CO/N=C(/C(=O)OC)c1ccccc1CSc1nc2c(Cl)cccc2s1 [Compound 43] |  | 0.77 |  | 114 ± 2.25 | 
14 | CO/N=C(/C(=O)OC)c1ccccc1CSc1nc2cc(F)ccc2s1 [Compound 52] |  | -0.28 |  | 19.3 ± 1.32 | 
15 | CO/N=C(/C(=O)OC)c1ccccc1CSc1nc2cc(Cl)ccc2s1 [Compound 53] | 2.84 ± 0.03 | -1.42 | -1.42 |  | 
16 | CO/N=C(/C(=O)OC)c1ccccc1CSc1nc2cc([N+](=O)[O-])ccc2s1 [Compound 55] | 1.07 ± 0.12 | -2.00 | -2.00 |  | 
17 | CO/N=C(/C(=O)OC)c1ccccc1CSc1nc2ccc(F)cc2s1 [Compound 62] |  | 0.55 |  | 78.3 ± 1.37 | 
18 | CO/N=C(/C(=O)OC)c1ccccc1CSc1nc2ccc(Cl)cc2s1 [Compound 63] |  | -0.71 |  | 9.37 ± 1.24 | 
19 | CO/N=C(/C(=O)OC)c1ccccc1CSc1nc2ccc(Br)cc2s1 [Compound 64] | 3.44 ± 0.03 | -1.31 | -1.31 |  | 
20 | CO/N=C(/C(=O)OC)c1ccccc1CSc1nc2ccc([N+](=O)[O-])cc2s1 [Compound 65] |  | -0.08 |  | 27.3 ± 1.27 | 
21 | CO/N=C(/C(=O)OC)c1ccccc1CSc1nc2ccc(C)cc2s1 [Compound 66] |  | -0.57 |  | 11.9 ± 1.08 | 
